In PubChem BioAssay AID623867 (Sanford-Burnham Center for Chemical Genomics, 2012):
Activity calls are given as the source filed them.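 The calls were made as follows: active = mean IC50 of at most 10 µM; inactive = the rest.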

Test system: H9c2 cardiomyocytes, H2O2 injury protection, ATP luminescence, 2 h
Assay: H9c2 survival under peroxide injury – cell-based, hydrogen peroxide, ATP luminescence, SAR follow-up (AID 623867)

Row | SMILES | IC50
1 | COc1ccc(-n2cc(-c3ccccc3)c3c(N4CCCCC4)ncnc32)cc1 | > 79 µM (inactive)
2 | COc1ccc(-c2cc(C(=O)N(C)C)c3ccccc3n2)cc1OC | > 79 µM (inactive)
3 | COc1ccc2c(=O)c(C(=O)N3CCN(S(=O)(=O)c4c(C)cc(C)cc4C)CC3)c[nH]c2c1 | > 79 µM (inactive)
4 | Cc1ccc(-c2[nH]c3ccccc3c2C(=O)C(=O)N(C)C)cc1 | > 79 µM (inactive)
5 | COc1cc(-c2cc(C(=O)Nc3cccc(C(C)=O)c3)c3ccccc3n2)cc(OC)c1OC | 8.45 µM
6 | CCCn1c(SC(C(=O)Nc2cccc(OC)c2)c2ccccc2)nc2ccccc2c1=O (stereo not given) | > 79 µM (inactive)
7 | Cc1ccc2cc(CN(Cc3cccnc3)S(=O)(=O)c3ccc(F)cc3)c(=O)[nH]c2c1 | > 79 µM (inactive)
8 | CCN(CC)C(=O)C(=O)c1c(-c2ccccc2)[nH]c2ccccc12 | > 79 µM (inactive)
9 | COc1cccc(NC(=O)CN(C)C(=O)c2cc(-c3cccs3)nn2-c2ccccc2)c1 | > 79 µM (inactive)
10 | COc1ccccc1N1C(=O)c2ccccc2N2C(=O)c3c(ccc(OC)c3OC)C12 (stereo not given) | 30.4 µM (inactive)
11 | Cc1ccccc1N(C(=O)c1snc(C(N)=O)c1N)C(C(=O)NCc1ccc(F)cc1)c1ccc(O)cc1 (stereo not given) | > 79 µM (inactive)
12 | COc1ccc2c(c1OC)C(=O)N1c3ccccc3C(=O)N(c3cccc(Br)c3)C21 (stereo not given) | 10.7 µM (inactive)
13 | COc1ccc2c(c1OC)C(=O)N1c3ccccc3C(=O)N(c3ccc(F)cc3)C21 (stereo not given) | 33.2 µM (inactive)
14 | CCCN(CC(=O)Nc1ccccc1OC)C(=O)c1cc(-c2cccs2)nn1-c1ccccc1 | > 79 µM (inactive)
15 | CCN(CC)S(=O)(=O)c1cc(C(=O)N2CCN(Cc3cccc4cccnc34)CC2)ccc1C | > 79 µM (inactive)
16 | O=c1[nH]c2ccccc2cc1CN(Cc1ccco1)S(=O)(=O)c1ccc(F)cc1 | > 79 µM (inactive)
17 | COc1ccc(N2C(=O)c3ccccc3N3C(=O)c4c(ccc(OC)c4OC)C23)cc1 (stereo not given) | 23.4 µM (inactive)
18 | COc1ccc(-c2cc(C(=O)N(C)Cc3ccc(OC)c(OC)c3OC)c3ccccc3n2)cc1OC | 10.1 µM (inactive)

Row | SMILES | IC50
19 | COc1ccc(-c2cc(C(=O)NCc3ccccc3)c3ccccc3n2)cc1OC | > 79 µM (inactive)
20 | COc1ccc(-n2cc(-c3ccccc3)c3c(NCc4ccccc4)ncnc32)cc1 | > 79 µM (inactive)
21 | O=C(C(=O)N1CCCCC1)c1c(-c2ccccc2)[nH]c2ccccc12 | > 79 µM (inactive)
22 | O=C1c2ccccc2N2C(=O)c3ccccc3[C@H]2N1c1ccccc1 | 29.4 µM (inactive)
23 | Cc1ccc(S(=O)(=O)N(Cc2cccnc2)Cc2cc3ccccc3[nH]c2=O)cc1 | > 79 µM (inactive)
24 | COc1ccc2c(c1OC)C(=O)N1c3ccccc3C(=O)N(c3ccccc3C)C21 (stereo not given) | 58.5 µM (inactive)
25 | COc1ccc(-n2cc(-c3ccccc3)c3c(N4CCCC4)ncnc32)cc1 | > 79 µM (inactive)
26 | CC(C)CCNC(=O)C(c1ccc(O)cc1)N(C(=O)c1snc(C(N)=O)c1N)c1ccccc1F (stereo not given) | > 79 µM (inactive)
27 | Cc1ccc2cc(CN(C)S(=O)(=O)c3ccc(F)cc3)c(=O)[nH]c2c1 | > 79 µM (inactive)
28 | O=C(C(=O)N1CCCC1)c1c(-c2ccccc2)[nH]c2ccccc12 | > 79 µM (inactive)
29 | COCCn1c(SC(C(=O)Nc2cc(C)ccc2C)c2ccccc2)nc2ccccc2c1=O (stereo not given) | > 79 µM (inactive)
30 | COc1cccc(CN(C)C(=O)c2cc(-c3ccccc3)nc3ccc(C)cc23)c1OC | > 79 µM (inactive)
31 | COc1ccc2cc(C(=O)N3CCN(S(=O)(=O)c4cc(C)ccc4C)CC3)c(C)nc2c1 | > 79 µM (inactive)
32 | Cc1ccc(C)c(S(=O)(=O)N2CCN(C(=O)c3cc4cc(C)ccc4nc3C)CC2)c1 | > 79 µM (inactive)
33 | COc1ccc(-c2cc(C(=O)NCc3ccco3)c3ccccc3n2)cc1OC | 41 µM
34 | COc1cccc(CN(C)C(=O)c2cc(-c3ccc(OC)c(OC)c3)nc3ccccc23)c1 | 10.7 µM (inactive)
35 | COCCNC(=O)C(c1ccc(O)cc1)N(C(=O)c1snc(C(N)=O)c1N)c1ccccc1F (stereo not given) | > 79 µM (inactive)
